US9718781B2, “Methods and compounds for treating proliferative disorders and viral infections” (University College Dublin, National University of Ireland, …, priority 2012, dated 2017)
Like-named read-outs stand apart in the source and are kept apart here.

Target: T1, TPβ (Homo sapiens, UniProt P21731)
T1 construct: expressed in transfected cells
Assay: U46619-induced [Ca2+]i mobilization in HEK.TPβ cells
Type: cell-based
Settings: for remaining activity at 1 µM / remaining activity at 10 µM: % of agonist-induced response in vehicle-treated cells; for remaining activity at 1 µM: read-out: Percentage of Control, TPβ, 1 μM; for remaining activity at 10 µM: antagonist 10 μM, read-out: Percentage of Control, TPβ, 10 μM
Outline: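 Fluo-4-loaded (3 μM, 1 h, 25° C.) HEK293 TPβ cells in KREBs-HEPES pH 7.4, pre-incubated 10 min with test compound, then stimulated with 1 μM U46619. Fluorescence at 520 nm followed for 75 s, calibrated by Fmax (2% Triton X100) and Fmin (1 mM EGTA).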

[1] = side-by-side comparison, n=6, Table 2.6, read-out: IC50 values for inhibition of U46619-mediated [Ca2+]i, TPβ

T1 sequence (P21731 1-407 isoform P21731-2): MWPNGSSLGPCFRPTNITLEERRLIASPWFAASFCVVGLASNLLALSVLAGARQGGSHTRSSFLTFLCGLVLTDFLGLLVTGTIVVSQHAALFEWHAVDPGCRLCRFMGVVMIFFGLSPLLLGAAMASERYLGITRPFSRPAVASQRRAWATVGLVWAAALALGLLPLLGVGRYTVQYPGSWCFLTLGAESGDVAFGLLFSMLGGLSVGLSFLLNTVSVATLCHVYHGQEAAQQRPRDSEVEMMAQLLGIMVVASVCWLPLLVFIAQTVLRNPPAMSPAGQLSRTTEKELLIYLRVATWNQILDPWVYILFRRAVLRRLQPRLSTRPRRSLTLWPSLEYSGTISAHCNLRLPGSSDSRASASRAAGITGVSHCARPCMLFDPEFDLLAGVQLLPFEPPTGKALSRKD

SMILES: COc1ccc(-c2cccc(Oc3ccc(C#N)cc3S(=O)(=O)NC(=O)NC(C)(C)C)c2)cc1 [NTP4, N-(tert-butylcarbamoyl)-5-cyano-2-((4′-methoxy-[1,1′-biphenyl]-3-yl)oxy)benzenesulfonamide]
- activity class in HEK.TPβ cells (antagonist 1 μM, 1 μM U46619): ACTIVE
- remaining activity at 1 µM (antagonist 1 μM, 1 μM U46619): 22.5 ± 3.7%
- remaining activity at 10 µM (1 μM U46619): 10.2 ± 0.95%
- IC50 [1]: 60.4 ± 8 nM
- inhibition of U46619-mediated responses (used at 0.5, HEK.TPβ cells): greater than 50%

SMILES: COc1ccc(-c2cccc(Oc3ccc([N+](=O)[O-])cc3S(=O)(=O)NC(=O)NC(C)(C)C)c2)cc1 [TP20, N-(tert-butylcarbamoyl)-2-((4′-methoxy-[1,1′-biphenyl]-3-yl)oxy)-5-nitrobenzene-sulfonamide]
- reduction of U46619-mediated calcium mobilization responses (1 & 10 μM, HEK.TPβ cells): approx. 90%
- IC50 (HEK.TPβ cells, 1 μM U46619, Table 2, read-out: IC50 data for U46619-mediated [Ca2+]i mobilization, TPβ): 7.33 nM
- remaining activity at 1 µM (antagonist 1 μM, 1 μM U46619): 12.6 ± 1.46%
- remaining activity at 10 µM (1 μM U46619): 9.96 ± 1.7%
- IC50 [1]: 9.61 ± 1.46 nM
